What was measured:
IST-SL2 = test: cells; type: functional, cell-based, Homo sapiens; details: Homo sapiens, IST-SL2;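 further: growth inhibition of human IST-SL2 cells, read out by a cell viability assay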
Description: SANGER: Inhibition of human IST-SL2 cell growth in a cell viability assay.

WSU-NHL = test: cells; type: functional, cell-based, Homo sapiens; details: Homo sapiens, WSU-NHL
Description: SANGER: Inhibition of human WSU-NHL cell growth in a cell viability assay.

RPMI-6666 = test: cells; type: functional, cell-based, Homo sapiens; details: Homo sapiens, RPMI-6666
Description: SANGER: Inhibition of human RPMI-6666 cell growth in a cell viability assay.

NCI-H322M = test: cells; type: functional, cell-based, Homo sapiens; details: Homo sapiens, NCI-H322M;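 further: cell viability assay measuring inhibition of growth of human NCI-H322M cells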
Description: SANGER: Inhibition of human NCI-H322M cell growth in a cell viability assay.

TUR = test: cells; type: functional, cell-based, Homo sapiens; details: Homo sapiens, TUR
Description: SANGER: Inhibition of human TUR cell growth in a cell viability assay.

NCI-H1417 = test: cells; type: functional, cell-based, Homo sapiens; details: Homo sapiens, NCI-H1417;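 further: human NCI-H1417 cells, growth inhibition determined with a cell viability readout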
Description: SANGER: Inhibition of human NCI-H1417 cell growth in a cell viability assay.

SU-DHL-1 = test: SANGER: Inhibition of human SU-DHL-1 cell growth in a cell viability assay.; type: functional, cell-based; details: Homo sapiens, SU-DHL-1
TE-441-T = test: cells; type: functional, cell-based, Homo sapiens; details: Homo sapiens, TE-441-T
Description: SANGER: Inhibition of human TE-441-T cell growth in a cell viability assay.

SNU-C1 = test: cells; type: functional, cell-based, Homo sapiens; details: Homo sapiens, SNU-C1;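 further: growth inhibition of SNU-C1 human cells, read out by a cell viability assay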
Description: SANGER: Inhibition of human SNU-C1 cell growth in a cell viability assay.

RPMI 8402 = test: SANGER: Inhibition of human RPMI-8402 cell growth in a cell viability assay.; type: functional, cell-based; details: Homo sapiens, RPMI 8402; read-out: IC50
NCI-H1522 = test: cells; type: functional, cell-based, Homo sapiens; details: Homo sapiens, NCI-H1522;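 further: growth inhibition of NCI-H1522 cells, read out with a cell viability assay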
Description: SANGER: Inhibition of human NCI-H1522 cell growth in a cell viability assay.

ARH-77 = test: cells; type: functional, cell-based, Homo sapiens; details: Homo sapiens, ARH-77;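 further: growth inhibition of ARH-77 cells, read out by a cell viability assay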
Description: SANGER: Inhibition of human ARH-77 cell growth in a cell viability assay.

GAMG = test: cells; type: functional, cell-based, Homo sapiens; details: Homo sapiens, GAMG;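 further: cell growth inhibition measured by a viability assay in the GAMG human cell line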
Description: SANGER: Inhibition of human GAMG cell growth in a cell viability assay.

KYSE-520 cell line = test: cells; type: functional, cell-based, Homo sapiens; details: Homo sapiens, KYSE-520;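 further: growth inhibition of human KYSE-520 cells, read out with a viability assay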
Description: SANGER: Inhibition of human KYSE-520 cell growth in a cell viability assay.

BHY = test: cells; type: functional, cell-based, Homo sapiens; details: Homo sapiens, BHY
Description: SANGER: Inhibition of human BHY cell growth in a cell viability assay.

CAL-54 = test: cells; type: functional, cell-based, Homo sapiens; details: Homo sapiens, CAL-54;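 further: growth inhibition of CAL-54 cells, read out by a viability measurement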
Description: SANGER: Inhibition of human CAL-54 cell growth in a cell viability assay.

MDA-MB-361 = test: cells; type: functional, cell-based, Homo sapiens; details: Homo sapiens, MDA-MB-361
CHP-212 = test: cells; type: functional, cell-based, Homo sapiens; details: Homo sapiens, CHP-212
Description: SANGER: Inhibition of human CHP-212 cell growth in a cell viability assay.

CWR22R = test: cells; type: functional, cell-based, Homo sapiens; details: Homo sapiens, 22Rv1;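 further: growth inhibition of 22Rv1 cells, read out with a cell viability assay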
Description: SANGER: Inhibition of human 22RV1 cell growth in a cell viability assay.

CAPAN-1 = test: cells; type: functional, cell-based, Homo sapiens; details: Homo sapiens, CAPAN-1;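 further: growth suppression of CAPAN-1 cells, read out by a cell viability assay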
Description: SANGER: Inhibition of human CAPAN-1 cell growth in a cell viability assay.

CAL-120 = test: cells; type: functional, cell-based, Homo sapiens; details: Homo sapiens, CAL-120
Description: SANGER: Inhibition of human CAL-120 cell growth in a cell viability assay.

MeWo = test: cells; type: functional, cell-based, Homo sapiens; details: Homo sapiens, MeWo;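 further: growth inhibition of MeWo cells, determined by a cell viability readout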
Description: SANGER: Inhibition of human Mewo cell growth in a cell viability assay.

MDA-MB-157 = test: cells; type: functional, cell-based, Homo sapiens; details: Homo sapiens, MDA-MB-157
Description: SANGER: Inhibition of human MDA-MB-157 cell growth in a cell viability assay.

TYK-nu = test: cells; type: functional, cell-based, Homo sapiens; details: Homo sapiens, TYK-nu
Description: SANGER: Inhibition of human TYK-nu cell growth in a cell viability assay.

SF-295 = test: cells; type: functional, cell-based, Homo sapiens; details: Homo sapiens, SF-295;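 further: growth inhibition of SF-295 cells, read out with a cell viability assay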
Description: SANGER: Inhibition of human SF295 cell growth in a cell viability assay.

AU565 = test: cells; type: functional, cell-based, Homo sapiens; details: Homo sapiens, AU565;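 further: cell viability assay measuring growth inhibition of human AU565 cells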
Description: SANGER: Inhibition of human AU565 cell growth in a cell viability assay.

SAOS-2 = test: cells; type: functional, cell-based, Homo sapiens; details: Homo sapiens, SAOS-2;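 further: growth inhibition of human Saos-2 cells determined by a cell viability assay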
Description: SANGER: Inhibition of human Saos-2 cell growth in a cell viability assay.

KU-19-19 = test: cells; type: functional, cell-based, Homo sapiens; details: Homo sapiens, KU-19-19
Description: SANGER: Inhibition of human KU-19-19 cell growth in a cell viability assay.

NCI-H2405 = test: cells; type: functional, cell-based, Homo sapiens; details: Homo sapiens, NCI-H2405
Description: SANGER: Inhibition of human NCI-H2405 cell growth in a cell viability assay.

LoVo = test: cells; type: functional, cell-based, Homo sapiens; details: Homo sapiens, LoVo
Description: SANGER: Inhibition of human LoVo cell growth in a cell viability assay.

IGROV-1 = test: cells; type: functional, cell-based, Homo sapiens; details: Homo sapiens, IGROV-1;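 further: reduction of IGROV-1 cell growth, read out with a viability assay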
Description: SANGER: Inhibition of human IGROV-1 cell growth in a cell viability assay.

FaDu = test: cells; type: functional, cell-based, Homo sapiens; details: Homo sapiens, FaDu;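 further: cell viability readout of growth inhibition in FaDu cells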
Description: SANGER: Inhibition of human FADU cell growth in a cell viability assay.

SiHa = test: cells; type: functional, cell-based, Homo sapiens; details: Homo sapiens, SiHa;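 further: Viability-based readout of growth inhibition in SiHa cells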
Description: SANGER: Inhibition of human SiHa cell growth in a cell viability assay.

MEL-HO = test: cells; type: functional, cell-based, Homo sapiens; details: Homo sapiens, MEL-HO
Description: SANGER: Inhibition of human MEL-HO cell growth in a cell viability assay.

G-361 = test: cells; type: functional, cell-based, Homo sapiens; details: Homo sapiens, G-361
HT-3 = test: cells; type: functional, cell-based, Homo sapiens; details: Homo sapiens, HT-3;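 further: growth inhibition measured with a cell viability readout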
Description: SANGER: Inhibition of human HT-3 cell growth in a cell viability assay.

SW837 = test: cells; type: functional, cell-based, Homo sapiens; details: Homo sapiens, SW837;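 further: growth inhibition of SW837 cells, determined with a cell viability assay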
Description: SANGER: Inhibition of human SW837 cell growth in a cell viability assay.

DBTRG-05MG = test: cells; type: functional, cell-based, Homo sapiens; details: Homo sapiens, DBTRG-05MG;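 further: cell viability assay measuring growth inhibition of human DBTRG-05MG cells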
Description: SANGER: Inhibition of human DBTRG-05MG cell growth in a cell viability assay.

A-427 = test: cells; type: functional, cell-based, Homo sapiens; details: Homo sapiens, A-427;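 further: growth inhibition of human A-427 cells, read out by a cell viability assay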
Description: SANGER: Inhibition of human A427 cell growth in a cell viability assay.

T98G = test: cells; type: functional, cell-based, Homo sapiens; details: Homo sapiens, T98G;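 further: growth inhibition of T98G cells, read out by a cell viability assay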
Description: SANGER: Inhibition of human T98G cell growth in a cell viability assay.

MKN-28 = test: cells; type: functional, cell-based, Homo sapiens; details: Homo sapiens, MKN-28;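 further: cell viability assay read-out, IC50 reflects suppression of growth of human MKN-28 cells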
Description: SANGER: Inhibition of human MKN28 cell growth in a cell viability assay.

EFO-21 = test: cells; type: functional, cell-based, Homo sapiens; details: Homo sapiens, EFO-21;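 further: growth inhibition of EFO-21 cells measured with a viability assay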
Description: SANGER: Inhibition of human EFO-21 cell growth in a cell viability assay.

SBC-5 = test: cells; type: functional, cell-based, Homo sapiens; details: Homo sapiens, SBC-5;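 further: cell viability assay read-out, IC50 is the concentration that inhibits growth of the cells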
Description: SANGER: Inhibition of human SBC-5 cell growth in a cell viability assay.

NUGC-3 = test: cells; type: functional, cell-based, Homo sapiens; details: Homo sapiens, NUGC-3;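 further: growth inhibition of human NUGC-3 cells, read out with a cell viability assay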
Description: SANGER: Inhibition of human NUGC-3 cell growth in a cell viability assay.

PC-14 = test: cells; type: functional, cell-based, Homo sapiens; details: Homo sapiens, PC-14;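 further: cell viability assay measuring inhibition of PC-14 cell growth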
Description: SANGER: Inhibition of human PC-14 cell growth in a cell viability assay.

Structure (SMILES): COc1cc(N2CCN(C)CC2)ccc1Nc1ncc2c(n1)N(C)c1ccccc1C(=O)N2C
- IC50 (IST-SL2): 3.82 µM
- IC50 (WSU-NHL): > 8 µM
- IC50 (RPMI-6666): 7.86 µM
- IC50 (NCI-H322M): > 8 µM
- IC50 (TUR): > 8 µM
- IC50 (NCI-H1417): > 8 µM
- IC50 (SU-DHL-1): > 8 µM
- IC50 (TE-441-T): > 8 µM
- IC50 (SNU-C1): > 8 µM
- IC50 (RPMI 8402): 4.5 µM
- IC50 (NCI-H1522): > 8 µM
- IC50 (ARH-77): > 8 µM

Structure (SMILES): Cc1cc([N+](=O)[O-])ccc1NS(=O)(=O)c1cc(Cl)ccc1Cl
- IC50 (GAMG): 5.58 µM
- IC50 (KYSE-520 cell line): 27.6 µM
- IC50 (BHY): 4.5 µM
- IC50 (CAL-54): 5.44 µM
- IC50 (MDA-MB-361): 3.66 µM
- IC50 (IST-SL2): 8.24 µM
- IC50 (CHP-212): 2.58 µM
- IC50 (CWR22R): 2.63 µM
- IC50 (CAPAN-1): 2.4 µM
- IC50 (CAL-120): 6.02 µM
- IC50 (WSU-NHL): 11.8 µM
- IC50 (MeWo): 28.6 µM
- IC50 (MDA-MB-157): 8.59 µM
- IC50 (TYK-nu): 2.01 µM
- IC50 (SF-295): 2.34 µM
- IC50 (AU565): 2.34 µM
- IC50 (SAOS-2): 6.94 µM
- IC50 (RPMI-6666): 20.2 µM
- IC50 (KU-19-19): > 32 µM
- IC50 (NCI-H2405): 3.96 µM
- IC50 (LoVo): 2 µM
- IC50 (IGROV-1): 2.66 µM
- IC50 (NCI-H322M): > 32 µM
- IC50 (TUR): 9.58 µM
- IC50 (FaDu): 4.28 µM
- IC50 (SiHa): 19.7 µM
- IC50 (MEL-HO): 6.53 µM
- IC50 (G-361): 1.77 µM
- IC50 (HT-3): > 32 µM
- IC50 (SW837): 4 µM
- IC50 (NCI-H1417): 23.2 µM
- IC50 (DBTRG-05MG): 9.11 µM
- IC50 (SU-DHL-1): > 32 µM
- IC50 (A-427): 0.23 µM
- IC50 (T98G): 10.6 µM
- IC50 (TE-441-T): 7.31 µM
- IC50 (MKN-28): 4.37 µM
- IC50 (EFO-21): 11.1 µM
- IC50 (SNU-C1): > 32 µM
- IC50 (SBC-5): 1.61 µM
- IC50 (RPMI 8402): 6.85 µM
- IC50 (NCI-H1522): > 32 µM
- IC50 (ARH-77): > 32 µM
- IC50 (NUGC-3): 3.65 µM
- IC50 (PC-14): 20 µM
